The subject of data set [1] is C57BL6 mice. Description: Quantitative pathology of ventricular fibrosis (Masson Trichrome) after 4 weeks of Ang II. The data set is classed as in vivo, mouse. To be noted: 4 weeks of Ang II. How it is done: (§1) Mouse experiments, drug delivery, echocardiography and blood pressure measurement. All animal experiments were approved by the University of Washington Institutional Animal Care and Use Committee. C57BL6 mice were housed in a barrier specific pathogen-free facility. Six to ten mice were included in each experimental group (Saline, Ang II, Ang II+SS-31, WT, Gαq, Gαq+SS-31). A pressor dose of Ang II (1.1 mg/kg/d) was continuously administered for 4 weeks using subcutaneous Alzet 1004 osmotic minipumps, with or without addition of SS-31 (3 mg/kg/d). Echocardiography was performed at baseline and after 4 weeks of pump implantation using a Siemens Acuson CV-70 equipped with a 13 MHz probe. Under 0.5% isoflurane to reduce agitation, standard M-mode, conventional and Tissue Doppler images were taken, and functional calculations were performed according to American Society of Echocardiography guidelines. MP1 was calculated as the ratio of the sum of isovolemic contraction and relaxation time to LV ejection time. An increase in MPI is an indication that a greater fraction of systole is spent to cope with the pressure changes during the isovolemic phases. […]
Quantitative Pathology. […] Quantitative analysis of fibrosis was performed by measuring the percentage of blue-staining fibrotic tissue relative to the total cross-sectional area of the ventricles.

Data set [2] relates to cleaved caspase-3, phospho-p38 MAP kinase, p38. The experiment in a line: Western immunoblots of cardiac protein extracts after 4 weeks of Ang II. The data set is classed as in vivo, mouse. As for the experimental part: (§2) Mouse experiments, drug delivery, echocardiography and blood pressure measurement. All animal experiments were approved by the University of Washington Institutional Animal Care and Use Committee. C57BL6 mice were housed in a barrier specific pathogen-free facility. Six to ten mice were included in each experimental group (Saline, Ang II, Ang II+SS-31, WT, Gαq, Gαq+SS-31). A pressor dose of Ang II (1.1 mg/kg/d) was continuously administered for 4 weeks using subcutaneous Alzet 1004 osmotic minipumps, with or without addition of SS-31 (3 mg/kg/d). Echocardiography was performed at baseline and after 4 weeks of pump implantation using a Siemens Acuson CV-70 equipped with a 13 MHz probe. Under 0.5% isoflurane to reduce agitation, standard M-mode, conventional and Tissue Doppler images were taken, and functional calculations were performed according to American Society of Echocardiography guidelines. MP1 was calculated as the ratio of the sum of isovolemic contraction and relaxation time to LV ejection time. An increase in MPI is an indication that a greater fraction of systole is spent to cope with the pressure changes during the isovolemic phases. As a reference for SS-31 peptide effect in Ang II treated mice, a genetic mouse model of Rosa-26 inducible-mCAT was included, in which mitochondrial catalase was overexpressed two weeks before Ang II treatment.
Western Immunoblots. Cardiac protein extracts were prepared by homogenization in lysis buffer containing protease and phosphatase inhibitors on ice (1.5 mM KCl, 50 mM Tris HCl, 0.125% Sodium deoxycholate, 0.375% Triton X 100, 0.15% NP40, 3 mM EDTA). The samples were sonicated and centrifuged at 10,000 g for 15 min in 4° C. The supernatant was collected and the concentration was determined using a BCA assay (Pierce Thermo Scientific, Rockford, IL). Total protein (25 μg) was separated on NuPAGE 4-12% Bis-Tris gel (Invitrogen) and transferred to 0.45 μm PVDF membrane (Millipore), and then blocked in 5% non-fat dry milk in Tris-buffer solution with 0.1% Tween-20 for 1 hour. Primary antibodies were incubated overnight, and secondary antibodies were incubated for 1 hour. The primary antibodies included: rabbit monoclonal anti-cleaved caspase-3 (Cell Signaling), mouse monoclonal anti-GAPDH (Millipore), rabbit polyclonal phospho-p38 MAP kinase (Cell Signaling), and mouse monoclonal anti-p38 (Santa Cruz Biotechnology). The enhanced chemiluminescence method (Thermo Scientific) was used for detection. Image Quant ver.2.0 was used to quantified the relative band density as a ratio to GAPDH (internal control). All samples were normalized to the same cardiac protein sample.
In general terms: Immunoblotting shows a protein as a band on a membrane.

Data set [3] relates to C57BL6 mice. Description: Ang II-induced cardiomyopathy: echocardiography and heart weight after 4 weeks. It is filed as in vivo, mouse. As for the experimental part: as §2
The test system of data set [4] is mitochondrial protein carbonyl groups. The experiment in a line: Cardiac mitochondrial protein carbonyl ELISA after 4 weeks of Ang II. It is filed as in vivo, mouse. To be noted: 4 weeks Ang II (vs. saline) or Ang II + SS-31 (vs. Ang II). As for the experimental part: as §2, with “treatment. […]” for “treatment.”
The subject of data set [5] is C57BL6 mice. The experiment in a line: Blood pressure by intravascular telemetry after pressor dose of Ang II. It is filed as in vivo, mouse. As for the experimental part: as §2
Blood pressure was measured in a separate group of mice by telemetry using an intravascular catheter PA-C10 (DSI, MN), in which measurement was performed every three hours starting from 2 days before pump placement until 2 days after Ang pump placement.

Another data set has as its system NADPH oxidase. The experiment in a line: NADPH oxidase activity in ventricular protein extract after 4 weeks of Ang II. Particulars: 4 weeks Ang II (vs. saline) or Ang II + SS-31 (vs. Ang II). The data set is classed as in vivo, mouse. How it is done: as §1, with “time.” for “time. An increase in MPI is an indication that a greater fraction of systole is spent to cope with the pressure changes during the isovolemic phases.”
NADPH Oxidase activity. […] In brief, […] of ventricular protein extract was incubated with dihydroethidium (DHE, 10 μM), sperm DNA (1.25 μg/ml), and NADPH (50 μM) in PBS/DTPA (containing 100 μM DTPA), The assay was incubated at 37° C. in the dark for 30 min and the fluorescence was detected using excitation/emission of 490/580 nm.

For another data set, the system named is neonatal cardiomyocytes. The experiment in a line: Mitosox flow cytometry of mitochondrial ROS in neonatal cardiomyocytes stimulated with Ang II. It is filed as cell-based, mouse. To be noted: Ang II 1 μM, 3 hours, neonatal cardiomyocytes. How it is done:
Neonatal mouse cardiomyocyte culture and flow cytometry. Ventricles from mouse neonates younger than 72 hours were dissected, minced, and enzymatically digested with Blendzyme 4 (45 μg/ml, Roche). After enzymatic digestion, cardiomyocytes were enriched using differential pre-plating for 2 hours, then seeded on fibronectin-coated culture dishes for 24 hours in DMEM (Gibco), with 20% Fetal Bovine Serum (Sigma) and 25 μM Arabinosylcytosine (Sigma). Cardiomyocytes were stimulated with Angiotensin II (1 μM) for 3 hours in serum-free DMEM containing 0.5% insulin transferrin-selenium (Sigma), 2 mM glutamine, and 1 mg/ml of BSA. Cardiomyocytes were simultaneously treated with either of the following: SS-31 (1 nM), N-acetyl cysteine (NAC: 0.5 mM), or PBS control. To measure mitochondrial superoxide concentration, Mitosox (5 μM) was incubated for 30 min at 37° C. to load cardiomyocytes, followed by 2 washes, with Hanks Balanced Salt Solution. Samples were analyzed using excitation/emission of 488/625 nm by flow cytometry. Flow data was analyzed using FCS Express (De Novo Software, Los Angeles, CA), and presented as histogram distributions of Mitosox fluorescence intensity.

The test system of data set [6] is ANP, Collagen 1a2, PGC1-α, TFAM, NRF-1, NRF-2. Description: Quantitative PCR of cardiac gene expression after 4 weeks of Ang II. The data set is classed as in vivo, mouse. How it is done: as §2
Quantitative PCR. Gene expression was quantified by quantitative real time PCR using an Applied Biosystems 7900 themocycler with Taqman Gene Expression Assays on Demand, which included: PGC1-α (Mm00731216), TFAM (Mm00447485), NRF-1 (Mm00447996), NRF-2 (Mm00487471), Collagen 1a2 (Mm00483937), and ANP (Mm01255747). Expression assays were normalized to 18S RNA.

For data set [7], the system named is several mammalian cell types. To be noted: energy-independent manner; cited from earlier work.
The next data set deals with mu-opioid receptor (Homo sapiens, UniProt P35372). The experiment in a line: mu-opioid receptor agonist activity (stated, no method). The data set is classed as biochemical. Particulars: stated in the description, no test described.
Chain of mu-opioid receptor (P35372 whole entry, species assumed): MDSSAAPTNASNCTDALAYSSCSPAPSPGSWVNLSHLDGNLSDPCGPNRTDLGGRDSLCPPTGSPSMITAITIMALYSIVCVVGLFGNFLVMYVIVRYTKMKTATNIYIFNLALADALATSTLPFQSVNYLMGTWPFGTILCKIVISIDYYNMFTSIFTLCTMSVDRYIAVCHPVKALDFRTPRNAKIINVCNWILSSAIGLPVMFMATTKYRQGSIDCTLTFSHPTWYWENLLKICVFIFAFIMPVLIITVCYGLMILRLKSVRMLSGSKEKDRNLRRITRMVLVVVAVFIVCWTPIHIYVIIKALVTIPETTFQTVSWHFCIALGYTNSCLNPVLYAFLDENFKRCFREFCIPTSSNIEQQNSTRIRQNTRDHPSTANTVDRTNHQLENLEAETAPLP
The mark [8] stands for this setting: 4 weeks Ang II (vs. saline) or Ang II + SS-31 (vs. Ang II).
Setting [9] is: 4 weeks Ang II 1.1 mg/kg/d with or without SS-31 3 mg/kg/d.
The mark [10] stands for this setting: 4 weeks of Ang II, in the presence or absence of SS-31.
The mark [11] stands for this setting: Ang II 1.1 mg/kg/d subcutaneous pump, FIG. 2B.

As for Angiotensin II [Ang II], the “increase in ventricular fibrosis (blue staining on trichrome)” value in the data set on C57BL6 mice [1] is given as “greater than 3 fold”. The “phosphorylation of p38 MAPK” value in [2] (setting [8]) is reported as “increased”. Also, the “increase in cleaved (activated) caspase-3 in left ventricular tissue” value in data set [2] (4 weeks of Ang II) is recorded as “approximately 3 fold”. Besides, the “protein levels of p38 MAP kinase” value in data set [2] (4 weeks of Ang II, FIG. 6C) is “increased”. In the data set with C57BL6 mice [3] (setting [9]), the Ea/Aa is 0.723±0.15 and the LVMI came out at 6.32 ± 0.39 mg/g. Further, the “heart weight (normalized to tibia length)” value in the data set with C57BL6 mice [3] (4 weeks Ang II with or without SS-31, saline 5.3±0.18) was found to be 7.69±0.20 mg/mm. The “increase in heart weights above saline treated control hearts” value in the data set with C57BL6 mice [3] (4 weeks of Ang II) amounted to 45%. Also, in the data set with C57BL6 mice [3] (4 weeks of Ang II 1.1 mg/kg/d), the “decline in Ea/Aa (diastolic function)” value was roughly 35% and the “increase in left ventricular mass index (LVMI) compared with baseline” value is “approximately 2 fold”. In addition, in the data set with C57BL6 mice [3] (setting [10]), the “change in LV end diastolic diameter (LVEDD)” value is “no change” and the “change in fractional shortening (FS, systolic function)” value was “no change”. Besides, in [4], the “ventricular mitochondrial protein carbonyl content” value is on record as “significantly increased”. In addition, in the data set with C57BL6 mice [5] (Ang II 1.1 mg/kg/d), the “increase in systolic and diastolic blood pressure above baseline” value is listed as 25-28 mm Hg. Moreover, in the data set with C57BL6 mice [5] (setting [11]), the “increase in diastolic pressure” value is recorded as 24.8 mm Hg and the “increase in systolic blood pressure” value is 27.2 mm Hg. In addition, the “diastolic blood pressure after Ang II” value with C57BL6 mice [5] (Ang II 1.1 mg/kg/d, baseline 94.5±3.5) was determined as 119.3±4.0 mm Hg. Moreover, in the data set on NADPH oxidase, the “cardiac NADPH oxidase activity” value is on record as “significantly increased”. The “increase of Mitosox fluorescence (indicator of mitochondrial superoxide)” value in the data set on neonatal cardiomyocytes is on record as “approximately 2 fold”. Moreover, the “expression of PGC-1α and downstream target genes TFAM, NRF-1 and NRF-2” value in data set [6] (setting [8]) is recorded as “induced the expression”. Moreover, in data set [6] (4 weeks of Ang II), the “increase in ANP gene expression” value is roughly 15 fold and the “increase in Coll1a2 gene expression” value was roughly 2.5 fold.
2′,6′-Dmt-D-Arg-Phe-Lys-NH2 [SS-02]: in data set [7], the “penetration of the plasma membrane” value is listed as “readily penetrates the plasma membrane”.
For Tyr-D-Arg-Phe-Lys-NH2 [SS-01], the “mu-opioid receptor agonist activity” value at mu-opioid receptor is “has mu-opioid receptor agonist activity”.

The values are drawn from patent US12102659B2, “Methods for the prevention or treatment of heart failure” (Cornell University, priority 2009, dated 2024).
